According to the supplement of paper PMC10307832:

How the values were obtained:
Assay in all cases: relative viability (nuclei count vs DMSO), 5 days (fraction); higher = more cells survive
BAM7 + Pictilisib = compound: CCOC1=CC=CC=C1N=NC2=C(NN(C2=O)C3=NC(=CS3)C4=CC=CC=C4)C [BAM7] + CS(=O)(=O)N1CCN(Cc2cc3nc(-c4cccc5[nH]ncc45)nc(N4CCOCC4)c3s2)CC1 [Pictilisib] (partner 1 µM)
Outline: (§1)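 For relative viability, nuclei counts in treated wells were divided by those in vehicle wells. Lung cancer cell lines had been pin-tool dosed in 1536-well plates the day after seeding and cultured for 5 days, then fixed and stained in one step (final 0.05% Triton X-100, 1% formaldehyde, 1 ug/ml Hoechst) and imaged at 4×. Doses were one drug alone or a fixed anchor-drug dose plus five library-drug doses (not always all listed) in √10 steps, and values are duplicate-plate medians.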

[1] = compound: CCn1c(-c2nonc2N)nc2c(C#CC(C)(C)O)ncc(OC[C@H]3CCCNC3)c21 + NC(=O)Nc1cc(-c2cccc(F)c2)sc1C(=O)N[C@H]1CCCNC1 [AZD7762] (partner 0.2 µM)
Outline: as §1

[2] = compound: CCn1c(-c2nonc2N)nc2c(C#CC(C)(C)O)ncc(OC[C@H]3CCCNC3)c21 + CC(=O)Nc1cccc(-n2c(=O)n(C3CC3)c(=O)c3c(Nc4ccc(I)cc4F)n(C)c(=O)c(C)c32)c1 [Trametinib] (partner 0.02 µM)
Outline: as §1

BAM7 + Decitabine = compound: CCOC1=CC=CC=C1N=NC2=C(NN(C2=O)C3=NC(=CS3)C4=CC=CC=C4)C [BAM7] + Nc1ncn([C@H]2C[C@H](O)[C@@H](CO)O2)c(=O)n1 [Decitabine] (partner 2 µM)
Outline: as §1

| Cell Line | relative viability (BAM7 + Pictilisib; first compound 0.5 µM) | relative viability (BAM7 + Pictilisib; first compound 5 µM) | relative viability (BAM7 + Pictilisib; first compound 15.81 µM) | relative viability (BAM7 + Pictilisib; first compound 50 µM) | relative viability ([1]; first compound 0.01 µM) | relative viability ([1]; first compound 0.03162 µM) | relative viability ([1]; first compound 0.1 µM) | relative viability ([1]; first compound 0.3162 µM) | relative viability ([1]; first compound 1 µM) | relative viability ([2]; first compound 0.01 µM) | relative viability ([2]; first compound 0.03162 µM) | relative viability ([2]; first compound 0.1 µM) | relative viability ([2]; first compound 0.3162 µM) | relative viability ([2]; first compound 1 µM) | relative viability (BAM7 + Decitabine; first compound 0.5 µM) | relative viability (BAM7 + Decitabine; first compound 5 µM) | relative viability (BAM7 + Decitabine; first compound 15.81 µM) | relative viability (BAM7 + Decitabine; first compound 50 µM) |
| --- | --- | --- | --- | --- | --- | --- | --- | --- | --- | --- | --- | --- | --- | --- | --- | --- | --- | --- |
| 201T | 0.637 | 0.625 | 0.593 | 0.69 | 0.679 | 0.713 | 0.628 | 0.51 | 0.68 | 0.707 | 0.705 | 0.763 | 0.722 | 0.749 | 0.844 | 0.887 | 0.837 | 0.926 |
| A549 | 0.566 | 0.507 | 0.483 | 0.508 | – | – | – | – | – | – | – | – | – | – | 0.288 | 0.29 | 0.251 | 0.288 |
| A-427 | 0.557 | 0.75 | 0.676 | 0.72 | 0.701 | 0.767 | 0.747 | 0.696 | 0.777 | 0.771 | 0.81 | 0.742 | 0.691 | 0.775 | 0.531 | 0.551 | 0.543 | 0.569 |
| ABC-1 | 0.746 | 0.674 | 0.984 | 0.857 | 0.705 | – | 0.568 | 0.716 | 0.594 | – | – | – | – | – | 1.06 | 0.983 | 1.34 | 1.06 |
| BEN | 0.611 | 0.642 | 0.518 | 0.59 | 0.629 | 0.696 | 0.562 | 0.686 | 0.696 | 0.973 | 1.25 | 0.986 | 1.03 | 1.12 | 0.726 | 0.741 | 0.673 | 0.905 |
| CAL-12T | 0.467 | 0.526 | 0.413 | 0.466 | 0.556 | 0.651 | 0.567 | 0.624 | 0.708 | 0.303 | 0.388 | 0.322 | 0.317 | 0.297 | – | – | – | – |
| COR-L23 | 0.832 | 0.855 | 0.743 | 0.872 | – | – | – | – | – | 0.625 | 0.565 | 0.486 | 0.382 | 0.373 | 0.428 | 0.453 | 0.461 | 0.468 |
| COR-L 105 | 0.366 | 0.427 | 0.432 | 0.455 | – | – | – | – | – | 0.451 | 0.434 | 0.437 | 0.46 | 0.499 | 0.606 | 0.7 | 0.678 | 0.622 |
| Calu-6 | 1.01 | 0.98 | 0.893 | 0.823 | – | – | – | – | – | – | – | – | – | – | – | – | – | – |
| ChaGo-K-1 | 0.647 | 0.878 | 0.789 | 0.929 | 0.87 | 0.885 | 0.868 | 0.836 | 0.758 | 0.843 | 0.997 | 0.879 | 0.814 | 0.78 | 0.508 | 0.515 | 0.512 | 0.536 |
| EBC-1 | 0.359 | 0.375 | 0.328 | 0.307 | – | – | – | – | – | – | – | – | – | – | – | – | – | – |
| EKVX | 0.458 | 0.512 | 0.335 | 0.415 | 0.699 | 0.687 | 0.632 | 0.732 | 0.596 | 0.394 | 0.385 | 0.347 | 0.377 | 0.34 | 0.372 | 0.355 | 0.284 | 0.334 |
| EMC-BAC-2 | 0.521 | 0.542 | 0.595 | 0.559 | 1.11 | 1.04 | 1.08 | 0.94 | 1.17 | 0.864 | – | 1.08 | 0.848 | 0.913 | 0.973 | 1.05 | 1.01 | 1.12 |
| EPLC-272H | 0.358 | 0.327 | 0.323 | 0.347 | 0.198 | 0.171 | 0.17 | 0.192 | 0.211 | 0.324 | 0.284 | 0.252 | 0.217 | 0.315 | 0.382 | 0.418 | 0.317 | 0.392 |
| H3255 | 0.544 | 0.652 | 0.568 | 0.579 | 0.857 | 0.943 | 1 | 0.839 | 0.846 | 0.608 | 0.614 | 0.576 | 0.427 | 0.532 | 0.588 | 0.612 | 0.582 | 0.603 |
| HARA | 0.327 | 0.267 | 0.334 | 0.264 | 0.269 | 0.629 | 0.485 | 0.156 | 0.299 | 0.542 | 0.852 | 0.947 | 0.652 | 0.611 | 0.538 | 0.59 | 0.545 | 0.531 |
| HCC-15 | 0.818 | 0.802 | 0.764 | 0.747 | 1.2 | 1.26 | 1.17 | 1.13 | 1.37 | 0.358 | 0.352 | 0.385 | 0.39 | 0.354 | 0.607 | 0.587 | 0.621 | 0.676 |
| HCC-44 | 0.593 | 0.65 | 0.534 | 0.634 | 1.03 | 0.946 | 0.997 | 1.12 | 1.08 | 1.03 | 0.98 | 1.09 | 1.07 | 1.05 | 0.96 | 0.938 | 0.926 | 0.949 |
